The target in this test is T1, protein-protein interaction between SOS1 and KRAS G12C (Homo sapiens, UniProt Q07889).
T1 construct: purchased Cisbio 64KRASG12PEG
T1 sequence (Q07889 1-1333): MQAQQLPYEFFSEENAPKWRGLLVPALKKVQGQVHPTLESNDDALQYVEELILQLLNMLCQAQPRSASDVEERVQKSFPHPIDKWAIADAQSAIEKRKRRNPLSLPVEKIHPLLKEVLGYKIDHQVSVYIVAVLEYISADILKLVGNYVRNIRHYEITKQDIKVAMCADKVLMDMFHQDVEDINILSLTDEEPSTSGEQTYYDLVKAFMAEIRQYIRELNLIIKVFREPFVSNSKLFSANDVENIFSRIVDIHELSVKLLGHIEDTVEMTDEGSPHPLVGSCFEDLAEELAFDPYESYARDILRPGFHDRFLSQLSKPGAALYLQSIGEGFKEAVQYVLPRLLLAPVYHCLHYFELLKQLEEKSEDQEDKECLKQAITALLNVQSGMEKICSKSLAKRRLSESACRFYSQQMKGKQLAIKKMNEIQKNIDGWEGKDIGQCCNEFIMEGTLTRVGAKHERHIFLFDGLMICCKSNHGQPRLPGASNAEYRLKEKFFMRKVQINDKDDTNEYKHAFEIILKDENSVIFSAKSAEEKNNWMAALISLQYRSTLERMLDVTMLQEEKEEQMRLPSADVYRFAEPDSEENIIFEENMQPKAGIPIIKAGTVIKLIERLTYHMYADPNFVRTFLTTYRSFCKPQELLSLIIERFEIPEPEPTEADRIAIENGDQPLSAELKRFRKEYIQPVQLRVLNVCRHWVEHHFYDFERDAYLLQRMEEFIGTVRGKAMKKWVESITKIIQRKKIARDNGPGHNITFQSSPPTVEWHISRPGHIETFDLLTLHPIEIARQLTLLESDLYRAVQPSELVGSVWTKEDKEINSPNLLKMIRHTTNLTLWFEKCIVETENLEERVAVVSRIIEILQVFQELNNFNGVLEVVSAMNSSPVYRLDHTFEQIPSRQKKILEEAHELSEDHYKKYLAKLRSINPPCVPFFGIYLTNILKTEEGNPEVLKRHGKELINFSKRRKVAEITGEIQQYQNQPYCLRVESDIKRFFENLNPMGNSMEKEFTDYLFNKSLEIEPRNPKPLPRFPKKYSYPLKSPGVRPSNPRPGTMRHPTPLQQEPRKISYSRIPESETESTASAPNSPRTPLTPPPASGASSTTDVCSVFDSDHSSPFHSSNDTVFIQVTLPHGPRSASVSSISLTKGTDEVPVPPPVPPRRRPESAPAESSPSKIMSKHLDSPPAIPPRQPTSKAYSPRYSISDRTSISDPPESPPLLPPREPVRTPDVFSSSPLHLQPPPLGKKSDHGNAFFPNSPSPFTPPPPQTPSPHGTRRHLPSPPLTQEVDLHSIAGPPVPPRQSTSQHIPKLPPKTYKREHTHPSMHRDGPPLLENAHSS
Put plainly: KRAS::SOS1 HTRF binding analysis (KRAS G12C/SOS1 binding kit). Particulars: compound at 0.1 uM. As for the experimental part: 1-1. KRAS::SOS1 HTRF binding analysis
An SOS1 inhibitory ability of the example compounds of the present invention was confirmed by identifying the effect of inhibiting a protein-protein interaction between SOS1 and KRAS G12C of the compounds according to examples of the present invention.
Specifically, a KRAS G12C/SOS1 binding kit (64KRASG12PEG, Cisbio, France) was purchased and used. 2 µℓ of Tag1-KRAS G12C and 2 µℓ of GTP were premixed and dispensed 4 µl each into a 384 well plate (6007290, PerkinElmer, USA). 2 µℓ of the compound and 4 µℓ of Tag2-SOS1 were placed and then 10 µℓ of premixed Anti-Tag1 XL665 antibody and Anti-Tag2 Tb cryptate antibody was dispensed to each well. The plates were sealed and allowed to react at room temperature for one hour and 40 minutes, and then 665 nm wavelength and 620 nm wavelength were measured using a HTRF® compatible reader (Synergy H4, BioTeK, USA), and the ratio of receptor and donor emission signals for each well was calculated as 665 nm/620 nm×10^4.
(+++: more than 70 to 100% inhibition, ++: more than 40 to 70% inhibition, +: 0 to 40% inhibition) [Table 4]
In general terms: In TR-FRET formats the signal depends on donor and acceptor labels being close together.
Take `C[C@@H](Nc1cnnc2ccc(N3CC[C@@H](O)C3)cc12)c1cccc(C(F)F)c1F` [Example 27, (R)-1-(4-(((R)-1-(3-(difluoromethyl)-2-fluorophenyl)ethyl)amino)cinnolin-6-yl)pyrrolidin-3-ol]: the inhibition (usually the drop in the measured response relative to a control, in per cent) at 0.1 µM lay within 40 to 70%. To `C[C@@H](Nc1cnnc2ccc(N3CC[C@H](O)C3)cc12)c1cccc(C(F)F)c1F` [Example 28, (S)-1-(4-(((R)-1-(3-(difluoromethyl)-2-fluorophenyl)ethyl)amino)cinnolin-6-yl)pyrrolidin-3-ol] belongs 0 to 40%; to `C[C@@H](Nc1cnnc2ccc(N3C[C@H]4COC[C@H]4C3)cc12)c1cccc(C(F)F)c1F` [Example 29, N-((R)-1-(3-(difluoromethyl)-2-fluorophenyl)ethyl)-6-((3 aR,6aS)-tetrahydro-1H-furo[3,4-c]pyrrol-5(3H)-yl)cinnolin-4-amine], 40 to 70%. To `C[C@@H](Nc1cnnc2ccc(N3CC(O)C3)cc12)c1cccc(C(F)F)c1F` [Example 30, (R)-1-(4-((1-(3-(difluoromethyl)-2-fluorophenyl)ethyl)amino)cinnolin-6-yl)azetidin-3-ol] belongs 0 to 40%. To `COC1CN(c2ccc3nncc(N[C@H](C)c4cccc(C(F)F)c4F)c3c2)C1` [Example 31, (R)-N-(1-(3-(difluoromethyl)-2-fluorophenyl)ethyl)-6-(3-methoxyazetidin-1-yl)cinnolin-4-amine] belongs 0 to 40%.

Take `C[C@@H](Nc1cnnc2ccc(N3CC(C)(O)C3)cc12)c1cccc(C(F)F)c1F` [Example 32, (R)-1-(4-((1-(3-(difluoromethyl)-2-fluorophenyl)ethyl)amino)cinnolin-6-yl)-3-methylazetidin-3-ol]: the inhibition at 0.1 µM lay within 0 to 40%.

Consider `COC1(C)CN(c2ccc3nncc(N[C@H](C)c4cccc(C(F)F)c4F)c3c2)C1` [Example 33, (R)-N-(1-(3-(difluoromethyl)-2-fluorophenyl)ethyl)-6-(3-methoxy-3-methylazetidin-1-yl)cinnolin-4-amine], for which the inhibition at 0.1 µM fell in the range of 0 to 40%.

With `COC1CC2(C1)CN(c1ccc3nncc(N[C@H](C)c4cccc(C(F)F)c4F)c3c1)C2` [Example 34, (R)-N-(1-(3-(difluoromethyl)-2-fluorophenyl)ethyl)-6-(6-methoxy-2-azaspiro[3.3]heptan-2-yl)cinnolin-4-amine], the inhibition at 0.1 µM lay within 0 to 40%. For the compound `C[C@@H](Nc1cnnc2ccc(N[C@@H]3CCOC3)cc12)c1cccc(C(F)F)c1F` [Example 35, N4-((R)-1-(3-(difluoromethyl)-2-fluorophenyl)ethyl)-N6-((R)-tetrahydrofuran-3-yl)cinnolin-4,6-diamine], the inhibition at 0.1 µM lay within 0 to 40%.

Turning to `C[C@@H](Nc1cnnc2ccc(N[C@H]3CCOC3)cc12)c1cccc(C(F)F)c1F` [Example 36, N4-((R)-1-(3-(difluoromethyl)-2-fluorophenyl)ethyl)-N6-((S)-tetrahydrofuran-3-yl)cinnolin-4,6-diamine], the inhibition at 0.1 µM is 0 to 40%.

As for `C[C@@H](Nc1cnnc2ccc(NC3CCOCC3)cc12)c1cccc(C(F)F)c1F` [Example 37, (R)-N4-(1-(3-(difluoromethyl)-2-fluorophenyl)ethyl)-N6-(tetrahydro-2H-pyran-4-yl)cinnolin-4,6-diamine], the inhibition at 0.1 µM lay within 0 to 40%. To `C[C@@H](Nc1cnnc2ccc(N[C@@H]3CCN(C)C3)cc12)c1cccc(C(F)F)c1F` [Example 38, N4-((R)-1-(3-(difluoromethyl)-2-fluorophenyl)ethyl)-N6-((R)-1-methylpyrrolidin-3-yl)cinnolin-4,6-diamine] belongs 40 to 70%; to `C[C@@H](Nc1cnnc2ccc(N[C@@H]3CCNC3)cc12)c1cccc(C(F)F)c1F` [Example 39, N4-((R)-1-(3-(difluoromethyl)-2-fluorophenyl)ethyl)-N6-((R)-pyrrolidin-3-yl)cinnolin-4,6-diamine], 70 to 100%; to `C[C@@H](Nc1cnnc2ccc(N[C@H]3CCNC3)cc12)c1cccc(C(F)F)c1F` [Example 40, N4-((R)-1-(3-(difluoromethyl)-2-fluorophenyl)ethyl)-N6-((S)-pyrrolidin-3-yl)cinnolin-4,6-diamine], 40 to 70%. For the compound `C[C@@H](Nc1cnnc2ccc(N3CCN(C(=O)C4COC4)CC3)cc12)c1cccc(C(F)F)c1F` [Example 41, (R)-(4-(4-(1-(3-(difluoromethyl)-2-fluorophenyl)ethylamino)cinnolin-6-yl)piperazin-1-yl)(oxetan-3-yl)methanone], the inhibition at 0.1 µM was 70 to 100%.

`C[C@@H](Nc1cnnc2ccc(N3CC4CC(C3)O4)cc12)c1cccc(C(F)F)c1` [Example 42, 6-(6-oxa-3-azabicyclo[3.1.1]heptan-3-yl)-N-((R)-1-(3-(difluoromethyl)phenyl)ethyl)cinnolin-4-amine]: the inhibition at 0.1 µM lay within 0 to 40%.

Turning to `C[C@@H](Nc1cnnc2ccc(N3CCC(C)(O)CC3)cc12)c1cccc(C(F)F)c1` [Example 43, (R)-1-(4-((1-(3-(difluoromethyl)phenyl)ethyl)amino)cinnolin-6-yl)-4-methylpiperidin-4-ol], the inhibition at 0.1 µM was 0 to 40%. Consider `C[C@@H](Nc1cnnc2ccc(N3C[C@H]4C[C@@H]3CO4)cc12)c1cccc(C(F)F)c1` [Example 44, 6-((1R,4R)-2-oxa-5-azabicyclo[2.2.1]heptan-5-yl)-N-((R)-1-(3-(difluoromethyl)phenyl)ethyl)cinnolin-4-amine], for which the inhibition at 0.1 µM lay within 0 to 40%. `C[C@@H](Nc1cnnc2ccc(N3CC(C)(O)C3)cc12)c1cccc(C(F)F)c1` [Example 45, (R)-1-(4-((1-(3-(difluoromethyl)phenyl)ethyl)amino)cinnolin-6-yl)-3-methylazetidin-3-ol]: the inhibition at 0.1 µM lay within 0 to 40%. In the case of `C[C@@H](Nc1cnnc2ccc(N3CC4CC(C3)O4)cc12)c1cccc(C(F)(F)F)c1` [Example 47, 6-(6-oxa-3-azabicyclo[3.1.1]heptan-3-yl)-N-((R)-1-(3-(trifluoromethyl)phenyl)ethyl)cinnolin-4-amine], the inhibition at 0.1 µM lay in the range of 0 to 40%. To `Cc1c([C@@H](C)Nc2cnnc3ccc(N4CC5CC(C4)O5)cc23)cccc1C(F)(F)F` [Example 48, 6-(6-oxa-3-azabicyclo[3.1.1]heptan-3-yl)-N-((R)-1-(2-methyl-3-(trifluoromethyl)phenyl)ethyl)cinnolin-4-amine] belongs 0 to 40%; to `Cc1c([C@@H](C)Nc2cnnc3ccc(N4CC5(CN(C)C5)C4)cc23)cccc1C(F)(F)F` [Example 49, (R)-N-(1-(2-methyl-3-(trifluoromethyl)phenyl)ethyl)-6-(6-methyl-2,6-diazaspiro[3.3]heptan-2-yl)cinnolin-4-amine], 0 to 40%. Take `Cc1c(C#N)cccc1[C@@H](C)Nc1cnnc2ccc(N3CC4CC(C3)O4)cc12` [Example 50, 3-((1R)-1-((6-(6-oxa-3-azabicyclo[3.1.1]heptan-3-yl)cinnolin-4-yl)amino)ethyl)-2-methylbenzonitrile]: the inhibition at 0.1 µM was in the range of 0 to 40%. For the compound `Cc1c(C#N)cccc1[C@@H](C)Nc1cnnc2ccc(N3CCC(C)(O)CC3)cc12` [Example 51, (R)-3-(1-((6-(4-hydroxy-4-methylpiperidin-1-yl)cinnolin-4-yl)amino)ethyl)-2-methylbenzonitrile], the inhibition at 0.1 µM was in the range of 0 to 40%.

For the origin of these results see EP4600243A2, “NOVEL BICYCLIC HETEROCYCLYL COMPOUNDS AND USE THEREOF” (Jeil Pharmaceutical Co., Ltd., priority 2022, dated 2024).
